From patent publication US8614211B2, “Certain chemical entities, compositions, and methods” (NeuPharma, Inc., priority 2011, dated 2013)
Read-outs that look alike come from different tables or passages of the source. Each block holds one compound with its values, some of them ahead of it.

System: A549 cells
Assay: Inhibition of cell growth in tumor cells, MTT assay
Format: cell-based
Conditions: Homo sapiens, read-out: A549 cell IC50
Description: Inhibition of cell growth by compounds was measured using MTT assay (Mosmann, T., Journal of Immunological Methods, 1983, 65, 55-63). Tumor cell lines were purchased from ATCC (American Type Culture Collection, Manassas, Va.). All cell lines were maintained in RPMI 1640 (Hyclone) supplemented with 10% fetal bovine serum (FBS, Hyclone), glutamine (2 mM, Hyclone), and antibiotics (penicillin 100 U/mL and streptomycin 50 μg/mL) at 37° C. in a humidified atmosphere of 5% CO2 in air. Taxol (positive control, Sigma) and compounds were dissolved in DMSO (Sigma), and the final concentration of DMSO in the medium was 1%. Tumor cells were plated in 96-well plates at densities from 4000 cells/well of a 96-well plate and allowed to adhere/grow for 24 h. They were then treated with various concentrations of drug for 72 h. 3-(4,5-Dimethylthiazol-2-yl)-2,5-diphenyltetrazolium bromide (MTT, Sigma) was used to determine the number of viable cells at the time of compound addition and the number of cells remaining after 72 h compound exposure. The number of cells remaining after 72 h was compared to the number of viable cells at the time of compound addition by measuring the absorbance at 570 nm, allowing for the calculation of growth inhibition.
All concentrations of compounds were tested in triplicate and controls were averaged over 4 wells. IC50 was calculated by plotting the concentration of compound vs the percentage of inhibition in treated wells using GraphPad Prism 5. […]

[1] = MTT assay, 72 h compound exposure, A549 cells

SMILES: COCCN1CCN(C(=O)Oc2ccc(C[C@H]3C(=O)OC[C@@H]3Cc3ccc(OC)c(OC)c3)cc2OC)CC1 [4-(((3R,4R)-4-(3,4-dimethoxybenzyl)-2-oxotetrahydrofuran-3-yl)methyl)-2-methoxyphenyl 4-(2-methoxyethyl)piperazine-1-carboxylate]
- IC50 (A549, 72 h): 788 nM

SMILES: COc1ccc(C[C@H]2COC(=O)[C@@H]2Cc2ccc(OC(=O)N3CCN(C)CC3)c(OC)c2)cc1OC [4-(((3R,4R)-4-(3,4-dimethoxybenzyl)-2-oxotetrahydrofuran-3-yl)methyl)-2-methoxyphenyl 4-methylpiperazine-1-carboxylate]
- IC50 (A549, 72 h): 850 nM

SMILES: COc1ccc(C[C@H]2COC(=O)[C@@H]2Cc2ccc(OC(=O)N(C)CCN(C)C)c(OC)c2)cc1OC [4-(((3R,4R)-4-(3,4-dimethoxybenzyl)-2-oxotetrahydrofuran-3-yl)methyl)-2-methoxyphenyl (2-(dimethylamino)ethyl)(methyl)carbamate]
- IC50 (A549, 72 h): 1020 nM

SMILES: COc1ccc(C[C@H]2COC(=O)[C@@H]2Cc2ccc(OC(=O)N(C)CCO)c(OC)c2)cc1OC [4-(((3R,4R)-4-(3,4-dimethoxybenzyl)-2-oxotetrahydrofuran-3-yl)methyl)-2-methoxyphenyl (2-hydroxyethyl)(methyl)carbamate]
- IC50 (A549, 72 h): 1070 nM

SMILES: COCCN(C)C(=O)Oc1ccc(C[C@H]2C(=O)OC[C@@H]2Cc2ccc(OC)c(OC)c2)cc1OC [4-(((3R,4R)-4-(3,4-dimethoxybenzyl)-2-oxotetrahydrofuran-3-yl)methyl)-2-methoxyphenyl (2-methoxyethyl)(methyl)carbamate]
- IC50 (A549, 72 h): 687 nM

SMILES: COc1ccc(C[C@H]2COC(=O)[C@@H]2Cc2ccc(OC(=O)N(C)C)c(OC)c2)cc1OC [4-(((3R,4R)-4-(3,4-dimethoxybenzyl)-2-oxotetrahydrofuran-3-yl)methyl)-2-methoxyphenyl dimethylcarbamate]
- IC50 (A549, 72 h): 521 nM

- IC50 [1]: 767 nM
SMILES: COc1ccc(C[C@H]2COC(=O)[C@@H]2Cc2ccc(OC(=O)N3CCOCC3)c(OC)c2)cc1OC [4-(((3R,4R)-4-(3,4-dimethoxybenzyl)-2-oxotetrahydrofuran-3-yl)methyl)-2-methoxyphenyl morpholine-4-carboxylate]

SMILES: COc1ccc(C[C@H]2COC(=O)[C@@H]2Cc2ccc(OC(=O)N3CCNCC3)c(OC)c2)cc1OC [4-(((3R,4R)-4-(3,4-dimethoxybenzyl)-2-oxotetrahydrofuran-3-yl)methyl)-2-methoxyphenyl piperazine-1-carboxylate]
- IC50 (A549, 72 h): 799 nM

- IC50 [1]: 659 nM
SMILES: COc1ccc(C[C@H]2COC(=O)[C@@H]2Cc2ccc(OC(=O)N3CCCCC3)c(OC)c2)cc1OC [4-(((3R,4R)-4-(3,4-dimethoxybenzyl)-2-oxotetrahydrofuran-3-yl)methyl)-2-methoxyphenyl piperidine-1-carboxylate]

SMILES: COc1ccc(C[C@H]2COC(=O)[C@@H]2Cc2ccc(OC(=O)N3CCCC3)c(OC)c2)cc1OC [4-(((3R,4R)-4-(3,4-dimethoxybenzyl)-2-oxotetrahydrofuran-3-yl)methyl)-2-methoxyphenyl pyrrolidine-1-carboxylate]
- IC50 [1]: 785 nM

SMILES: COc1ccc(C[C@H]2COC(=O)[C@@H]2Cc2ccc(OC(=O)N3CC[C@@H](NC(=O)OC(C)(C)C)C3)c(OC)c2)cc1OC [(R)-4-(((3R,4R)-4-(3,4-dimethoxybenzyl)-2-oxotetrahydrofuran-3-yl)methyl)-2-methoxyphenyl 3-((tert-butoxycarbonyl)amino) pyrrolidine-1-carboxylate]
- IC50 [1]: 585 nM

SMILES: COc1ccc(C[C@H]2COC(=O)[C@@H]2Cc2ccc(OC(=O)N3CC[C@@H](O)C3)c(OC)c2)cc1OC [(R)-4-(((3R,4R)-4-(3,4-dimethoxybenzyl)-2-oxotetrahydrofuran-3-yl)methyl)-2-methoxyphenyl 3-hydroxypyrrolidine-1-carboxylate]
- IC50 [1]: 587 nM

SMILES: COc1ccc(C[C@H]2COC(=O)[C@@H]2Cc2ccc(OC(=O)N3CC[C@H](N)C3)c(OC)c2)cc1OC [(S)-4-(((3R,4R)-4-(3,4-dimethoxybenzyl)-2-oxotetrahydrofuran-3-yl)methyl)-2-methoxyphenyl 3-aminopyrrolidine-1-carboxylate]
- IC50 (A549, 72 h): 923 nM

SMILES: COc1ccc(C[C@H]2COC(=O)[C@@H]2Cc2ccc(OC(=O)N3CC[C@H](O)C3)c(OC)c2)cc1OC [(S)-4-(((3R,4R)-4-(3,4-dimethoxybenzyl)-2-oxotetrahydrofuran-3-yl)methyl)-2-methoxyphenyl 3-hydroxypyrrolidine-1-carboxylate]
- IC50 [1]: 841 nM
